This is an account of results in US12421253B2 (Mirati Therapeutics, Inc., priority 2020, dated 2025).

In one assay the target is T1, KRas^G12D (Homo sapiens, UniProt P01116, G12D).
T1 construct: […]; biotin (biotinylated); purchased Accelegan Inc
Put plainly: KRas binding assay (TR-FRET displacement of Cy5 labelled tracer). (In TR-FRET formats the signal depends on donor and acceptor labels being close together.)

The next assay concerns the target T2, KRas^G12R (Homo sapiens, UniProt P01116, G12R).
T2 construct: […]; biotin (biotinylated); purchased Accelegan Inc
The assay is described as above.

The next assay concerns the target T3, KRas^G12V (Homo sapiens, UniProt P01116, G12V).
T3 construct: […]; biotin (biotinylated); purchased Accelegan Inc
The description is as above.

A further assay has as its system PSN1 cells, pERK. Put plainly: Inhibition of KRas phosphorylation of ERK (Cisbio HTRF Advanced pERK assay). Format: cell-based. As to conditions: Homo sapiens, PSN1, 3 h, read-out: Inhibition (HTRF IC50 nM) of KRas-mediated Phosphorylation of ERK, PSN1. Here is the method: (§1) Inhibition of KRas Phosphorylation of ERK (HTRF) by Exemplary Compounds of Formula (I)
(§2) Cisbio HTRF Advanced pERK Assay Catalog #64AERPEH
(§3) • Day 1: Seed 6,000 cells/well −25 μl/well in 384-well white solid bottom plate; RPM1_10% FBS. […] To harvest cells from flask using 0.05% Trypsin/EDTA solution. Add 10 mL of media to stop trypsinizing. Pipette the cells into a conical bottom 50 mL centrifuge tube and centrifuge 5 min×1000 rpm. • 2. Re-suspend the cell pellet in media, take a cell count, and then adjust the cell density using fresh media. • 3. Seed 6,000 cells into cell culture plate with […]. The • 4. Incubate cell plate overnight in a 37° C., 5% CO2 incubator. Compound Titrations • 1. Use Tecan to complete the compound addition. Compounds start from 10 uM top, 3-fold dilution, and 10 doses. The final DMSO concentration is 0.8%. Dispensed 0.2 uM Trametinib as Min control. • 2. Incubate cell plate for 3 hrs in the incubator. Detection with Cisbio pERK HTRF Kit • 1. Dilute 1 volume of 4× lysis buffer with 3 volumes of deionized water. Then, add 100× the blocking reagent. Keep lysis buffer on the ice. • 2. At the end of the compound treatment, flick-off the media. • 3. Add 35 μL of lysis buffer per well using a Multidrop Combi. Then place on a plate agitator shaking at 300 rpm at 4° C. for 40 mins. • 4. Make up the HTRF antibody buffer. For each assay plate, mix 50 μL of d2-conjugate antibody with 950 μL of detection buffer. Similarly, mix 50 μL of Cryptate antibody with 950 μL of detection buffer. Then mix the two diluted antibodies together. • 5. Dispense 3.4 μL the antibody buffer to wells of an empty assay plate. Seal the plate and centrifuge plate 30 sec×1000 rpm. • 6. At the end of the 4° C. lysis, centrifuge the lysate plates 3 mins×1500 rpm. • 7. Use the Bravo to transfer 13.6 μL of lysate from cell culture plate to assay plate. Then incubate assay plate for 2 hrs at room temperature. • 8. At the end of incubation, read plate on the Envision after centrifuging plate 30 sec×1000 rpm.

For a further assay, the system named is ASPC1 cells, pERK. Described as above. Format: cell-based. As to conditions: Homo sapiens, ASPC1, 3 h, AsPC-1 cells, read-out: Inhibition (HTRF IC50 nM) of KRas-mediated Phosphorylation of ERK, AsPC-1. Here is the method: as §1, §2, §3
In the next assay the test system is H727 cells, pERK. The assay is described as above. The settings on record: Homo sapiens, NCI-H727, 3 h, read-out: Inhibition (HTRF IC50 nM) of KRas-mediated Phosphorylation of ERK, H727. Format: cell-based. Here is the method: as §1, §2, §3

T1 sequence (P01116 1-169 isoform P01116-2 G12D): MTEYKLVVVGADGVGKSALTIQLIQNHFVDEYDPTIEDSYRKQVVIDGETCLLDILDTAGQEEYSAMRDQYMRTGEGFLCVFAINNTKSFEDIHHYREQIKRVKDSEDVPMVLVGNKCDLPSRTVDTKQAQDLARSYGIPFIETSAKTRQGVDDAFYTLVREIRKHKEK
T3 sequence (P01116 1-169 isoform P01116-2 G12V): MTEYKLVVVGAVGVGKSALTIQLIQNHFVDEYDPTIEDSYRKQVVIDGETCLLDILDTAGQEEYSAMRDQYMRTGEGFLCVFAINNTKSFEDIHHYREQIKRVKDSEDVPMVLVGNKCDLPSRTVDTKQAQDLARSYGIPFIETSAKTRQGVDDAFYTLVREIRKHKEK
T2 sequence (P01116 1-169 isoform P01116-2 G12R): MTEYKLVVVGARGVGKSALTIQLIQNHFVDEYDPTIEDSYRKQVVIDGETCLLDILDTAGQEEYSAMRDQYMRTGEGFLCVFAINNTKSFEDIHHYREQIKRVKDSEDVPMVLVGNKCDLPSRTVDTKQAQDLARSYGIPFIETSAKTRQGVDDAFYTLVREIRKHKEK
Description for KRas^G12D: (§4) The ability of a compound to bind to KRas was measured using a TR-FRET displacement assay. […] After a 60-minute incubation at room temperature, the reaction was measured using a BMG LABTECH CLARIO star Plus via TR-FRET. […] The POC values were fit to a 4-parameter IC50 equation and the IC50 value reported.
Description for KRas^G12R: as §4
Description for KRas^G12V: as §4

Broadly, the IC50 is the point on the concentration scale where inhibition reaches its midpoint. Take `Oc1cc(N2CCc3c(nc(OC[C@@]45CCCN4C[C@H](F)C5)nc3N3CC4CC(O)CC3C4)C2)c2c(Cl)c(F)ccc2c1` (single isomer, unassigned) [Example 76]: the IC50 is 37 nM at KRas^G12D; 7 nM at KRas^G12R; 7 nM on KRas^G12V; 5630 nM in the assay on PSN1 cells, pERK.
In the case of `Oc1cc(N2CCc3c(nc(OC[C@@]45CCCN4C[C@H](F)C5)nc3N3CC4CC(O)CC3C4)C2)c2c(Br)c(F)ccc2c1` (single isomer, unassigned) [Example 213], the IC50 on KRas^G12D was 11 nM; at KRas^G12R, 3 nM; at KRas^G12V, 3 nM; with PSN1 cells, pERK, 6500 nM.
For the molecule `Cc1cc2[nH]ncc2c(N2CCc3c(nc(OCC45CCCN4CCC5)nc3N3CCC[C@@](C)(O)C3)C2)c1C` [Example 15, (R)-1-(7-(5,6-dimethyl-1H-indazol-4-yl)-2-((hexahydro-1H-pyrrolizin-7a-yl)methoxy)-5,6,7,8-tetrahydropyrido[3,4-d]pyrimidin-4-yl)-3-methylpiperidin-3-ol], the IC50 on KRas^G12D was determined as 126 nM; on KRas^G12R, 144 nM; on KRas^G12V, 103 nM; in the assay with ASPC1 cells, pERK it was 1110 nM; in the assay on H727 cells, pERK, 3190 nM.
With `CCc1c(F)ccc2cc(O)cc(N3CCc4c(nc(OC[C@@]56CCCN5C[C@H](F)C6)nc4N4CC5CCC(C4)O5)C3)c12` [Example 176, 4-(4-(8-oxa-3-azabicyclo[3.2.1]octan-3-yl)-2-(((2R,7aS)-2-fluorotetrahydro-1H-pyrrolizin-7a(5H)-yl)methoxy)-5,8-dihydropyrido[3,4-d]pyrimidin-7(6H)-yl)-5-ethyl-6-fluoronaphthalen-2-ol], the IC50 is 78 nM at KRas^G12D; at most 2 nM at KRas^G12R; 11 nM at KRas^G12V; 5940 nM in the assay on ASPC1 cells, pERK; 984 nM in the assay with H727 cells, pERK.
In the same order, the values of `CCc1c(F)ccc2cc(O)cc(N3CCc4c(nc(OC[C@@]56CCCN5C[C@H](F)C6)nc4N4C[C@H](O)C[C@@H](C(N)=O)C4)C3)c12` [Example 186, (3R,5R)-1-(7-(8-ethyl-7-fluoro-3-hydroxynaphthalen-1-yl)-2-(((2R,7aS)-2-fluorohexahydro-1H-pyrrolizin-7a-yl)methoxy)-5,6,7,8-tetrahydropyrido[3,4-d]pyrimidin-4-yl)-5-hydroxypiperidine-3-carboxamide] are at most 2 nM, at most 2 nM, at most 2 nM, 4360 nM and 2670 nM.
Regarding `CCc1c(F)ccc2cc(O)cc(N3CCc4c(nc(OC[C@@]56CCCN5C[C@H](F)C6)nc4N4C[C@H](O)C[C@H](C(N)=O)C4)C3)c12` [Example 187, (3S,5R)-1-(7-(8-ethyl-7-fluoro-3-hydroxynaphthalen-1-yl)-2-(((2R,7aS)-2-fluorohexahydro-1H-pyrrolizin-7a-yl)methoxy)-5,6,7,8-tetrahydropyrido[3,4-d]pyrimidin-4-yl)-5-hydroxypiperidine-3-carboxamide], the half-maximal inhibitory concentration (IC50) on KRas^G12D is 4 nM; at KRas^G12R, at most 2 nM; on KRas^G12V it was at most 2 nM; in the assay with ASPC1 cells, pERK, 5330 nM; in the assay with H727 cells, pERK, 1320 nM.
As to `C[C@@]1(O)CCCN(c2nc(OCC34CCCN3CCC4)nc3c2CCN(c2cc(O)cc(Cl)c2C2CC2)C3)C1` [Example 204, (R)-1-(7-(3-chloro-2-cyclopropyl-5-hydroxyphenyl)-2-((hexahydro-1H-pyrrolizin-7a-yl)methoxy)-5,6,7,8-tetrahydropyrido[3,4-d]pyrimidin-4-yl)-3-methylpiperidin-3-ol], the half-inhibitory concentration (IC50) at KRas^G12D was 6 nM; at KRas^G12R, 9 nM; at KRas^G12V it was 6 nM; in the assay on ASPC1 cells, pERK, 1530 nM; in the assay with H727 cells, pERK, 1670 nM.
Take `CN1CCC[C@H]1COc1nc2c(c(N3CCOCC(C)(O)C3)n1)CCN(c1cccc3cccc(Cl)c13)C2` (stereo partly drawn) [Example 205, 4-[7-(8-chloro-1-naphthyl)-2-[[(2S)-1-methylpyrrolidin-2-yl]methoxy]-6,8-dihydro-5H-pyrido[3,4-d]pyrimidin-4-yl]-6-methyl-1,4-oxazepan-6-ol]: the concentration for half-maximal inhibition (IC50) on KRas^G12D was 4690 nM; on KRas^G12R it was 6430 nM; at KRas^G12V, 4700 nM; in the assay on ASPC1 cells, pERK, at least 10000 nM; with H727 cells, pERK it was at least 10000 nM.
For `CN1CCC[C@H]1COc1nc2c(c(N3C[C@@H]4C(=O)NC(=O)[C@@H]4C3)n1)CCN(c1cccc3cccc(Cl)c13)C2` [Example 206, (3aS,6aR)-5-[7-(8-chloro-1-naphthyl)-2-[[(2S)-1-methylpyrrolidin-2-yl]methoxy]-6,8-dihydro-5H-pyrido[3,4-d]pyrimidin-4-yl]-3a,4,6,6a-tetrahydropyrrolo[3,4-c]pyrrole-1,3-dione], the half-maximal inhibitory concentration (IC50) on KRas^G12D was 932 nM; on KRas^G12R, 1620 nM; at KRas^G12V, 833 nM; with ASPC1 cells, pERK it was at least 10000 nM; in the assay on H727 cells, pERK, at least 10000 nM.
For the molecule `CN1CCC[C@H]1COc1nc2c(c(N3CCCC4(CC(=O)N4)C3)n1)CCN(c1cccc3cccc(Cl)c13)C2` (stereo partly drawn) [Example 207, 8-[7-(8-chloro-1-naphthyl)-2-[[(2S)-1-methylpyrrolidin-2-yl]methoxy]-6,8-dihydro-5H-pyrido[3,4-d]pyrimidin-4-yl]-1,8-diazaspiro[3.5]nonan-2-one], the IC50 was 765 nM at KRas^G12D; 553 nM at KRas^G12R; 404 nM at KRas^G12V; at least 10000 nM in the assay with ASPC1 cells, pERK; at least 10000 nM in the assay with H727 cells, pERK.
With `CN1CCC[C@H]1COc1nc2c(c(N3CCCC4(CNS(=O)(=O)N4)C3)n1)CCN(c1cccc3cccc(Cl)c13)C2` (stereo partly drawn) [Example 208, 9-[7-(8-chloro-1-naphthyl)-2-[[(2S)-1-methylpyrrolidin-2-yl]methoxy]-6,8-dihydro-5H-pyrido[3,4-d]pyrimidin-4-yl]-2λ6-thia-1,3,9-triazaspiro[4.5]decane 2,2-dioxide], the IC50 at KRas^G12D was 136 nM; at KRas^G12R, 350 nM; at KRas^G12V, 197 nM; in the assay on ASPC1 cells, pERK, 4050 nM; in the assay on H727 cells, pERK it was 6940 nM.
In the same order, the values of `CN(C)C(=O)c1cc2n(n1)CCCN(c1nc(OC[C@@H]3CCCN3C)nc3c1CCN(c1cccc4cccc(Cl)c14)C3)C2` [Example 209, (S)-5-(7-(8-chloronaphthalen-1-yl)-2-((1-methylpyrrolidin-2-yl)methoxy)-5,6,7,8-tetrahydropyrido[3,4-d]pyrimidin-4-yl)-N,N-dimethyl-5,6,7,8-tetrahydro-4H-pyrazolo[1,5-a][1,4]diazepine-2-carboxamide] are 1120 nM, 4140 nM, 1900 nM, 7200 nM and 8520 nM.
As to `CN1CCC[C@H]1COc1nc2c(c(N3CCCC4(CNC(=O)N4)C3)n1)CCN(c1cccc3cccc(Cl)c13)C2` (stereo partly drawn) [Example 210, 7-(7-(8-chloronaphthalen-1-yl)-2-(((S)-1-methylpyrrolidin-2-yl)methoxy)-5,6,7,8-tetrahydropyrido[3,4-d]pyrimidin-4-yl)-1,3,7-triazaspiro[4.5]decan-2-one], the 50% inhibitory concentration (IC50) on KRas^G12D is 579 nM; at KRas^G12R it was 699 nM; at KRas^G12V, 497 nM; in the assay with ASPC1 cells, pERK, at least 10000 nM; in the assay on H727 cells, pERK it was at least 10000 nM.
As to `CN1CCC[C@H]1COc1nc2c(c(N3CCCC4(C3)NC(=O)NC4=O)n1)CCN(c1cccc3cccc(Cl)c13)C2` (stereo partly drawn) [Example 211, 9-[7-(8-chloro-1-naphthyl)-2-[[(2S)-1-methylpyrrolidin-2-yl]methoxy]-6,8-dihydro-5H-pyrido[3,4-d]pyrimidin-4-yl]-1,3,9-triazaspiro[4.5]decane-2,4-dione], the IC50 amounted to 101 nM on KRas^G12D; 34 nM at KRas^G12R; 38 nM at KRas^G12V; 4890 nM in the assay on ASPC1 cells, pERK; 2880 nM with H727 cells, pERK.
